These results are taken from patent US20110182850A1, “ORGANIC COMPOUNDS AND THEIR USES” (priority 2009, published 2011).

Read-outs that look alike come from different tables or passages of the source.

Data set [1] is described as follows: Measurement of thermodynamic solubility. The following applies: thermodynamic from solid, read-out: solubility in water. The format is physicochemical. The protocol:
Thermodynamic solubility for the compounds of the invention listed in Table C is measured by a published literature procedure, e.g., Liping Zhou, et al., J. Pharm. Sci (2007) 96(11): 3052-3071.
The DMSO stocks of test compounds previously dissolved in 25 μL of DMSO (˜10 mM) in mini-prep vial (MPV: Whatman, with PVDF filter and 0.45 μm pore size) chamber were evaporated via a GeneVac HT-4X evaporator for approximately 1 hour, at the guard temperature of 30° C. An aliquot of 250 μL buffer solution (pH 1.0 or 6.8) was added into each MPV chamber containing powders reconstituted from DMSO stock solutions. The MPV filter plungers were pushed down into the chamber until the membrane of the filter plunger slightly touched the surface of the buffer to promote equilibrium between the two compartments and to minimize the adsorption due to non-specific binding of samples during the subsequent 24-hr incubation (at 600 RPM at room temperature). Immediately after the 24-hr incubation, the plungers were further pushed down to the bottom of the chambers. More solution was pushed through the membrane and entered the plunger compartment. The filter/chamber assemblies were then put on a shaker for another 30 minutes at 600 RPM. Afterwards, filtrates were further diluted (1:10) with 50/50 acetonitrile/water solvent followed by a thorough mixing process. Both plates with diluted and undiluted filtrates were analyzed by HPLC and quantified against the four-point standard dilution curve of the same test compound (5 μM, 35 μM, 65 μM and 100 μM, respectively). In the current study, solubility reflects the average of triplicate samples tested at each pH.

The next data set in a line: in vivo. More on the design: species or system Sprague Dawley rats. The note with it: rat; for Cmax: po, 10 mg/kg. The protocol: Certain compounds of Table A and Comparative Example 1 (Compound A-7 of copending international patent application serial no. PCT/EP08/063,460) are administered as a solution orally via gavage at 10 mg/kg to Sprague Dawley rats at a dosing volume of 10 ml/kg. Samples are collected via a surgically implanted cannula at selected timepoints deemed necessary to characterize pharmacokinetic parameters. Blood samples are placed on wet ice and spun down to plasma within 5 minutes of timepoint collection. Plasma samples are frozen until bioanalytical analysis.
Certain compounds of Table A and Comparative Example 1 are administered intravenously into a surgically implanted cannula as a solution at 1 mg/kg to Sprague Dawley rats at a dosing volume of […]. Samples are collected via another surgically implanted cannula at selected timepoints deemed necessary to characterize pharmacokinetic parameters. Blood samples are placed on wet ice and spun down to plasma within 5 minutes of timepoint collection. Plasma samples are frozen until bioanalytical analysis.

In data set [2] the target is T1, HCV NS3-4A serine protease (full-length NS3-4A protein, genotype 1a, strain HCV-1) (Hepatitis C virus genotype 1a, UniProt P26664).
T1 construct: using the full-length NS3-4A protein (genotype 1a, strain HCV-1)
Put plainly: HCV NS3-4A protease assay. Type of data set: biochemical. The following applies: Protease IC50. The protocol: The inhibitory activity of certain compounds of Table A against HCV NS3-4A serine protease is determined in a homogenous assay using the full-length NS3-4A protein (genotype 1a, strain HCV-1) and a commercially available internally-quenched fluorogenic peptide substrate as described by Taliani, M., et al. 1996 Anal. Biochem. 240:60-67, which is incorporated by reference in its entirety.

Setting [3] is: pH 1, simulated gastric fluid, pH of about 1.
The mark [4] stands for this setting: pH 6.8, aqueous buffer, pH of about 6.8.

T1 sequence (P26664 1658-1711): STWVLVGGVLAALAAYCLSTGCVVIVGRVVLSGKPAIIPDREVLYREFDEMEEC
T1 sequence (P26664 1027-1657): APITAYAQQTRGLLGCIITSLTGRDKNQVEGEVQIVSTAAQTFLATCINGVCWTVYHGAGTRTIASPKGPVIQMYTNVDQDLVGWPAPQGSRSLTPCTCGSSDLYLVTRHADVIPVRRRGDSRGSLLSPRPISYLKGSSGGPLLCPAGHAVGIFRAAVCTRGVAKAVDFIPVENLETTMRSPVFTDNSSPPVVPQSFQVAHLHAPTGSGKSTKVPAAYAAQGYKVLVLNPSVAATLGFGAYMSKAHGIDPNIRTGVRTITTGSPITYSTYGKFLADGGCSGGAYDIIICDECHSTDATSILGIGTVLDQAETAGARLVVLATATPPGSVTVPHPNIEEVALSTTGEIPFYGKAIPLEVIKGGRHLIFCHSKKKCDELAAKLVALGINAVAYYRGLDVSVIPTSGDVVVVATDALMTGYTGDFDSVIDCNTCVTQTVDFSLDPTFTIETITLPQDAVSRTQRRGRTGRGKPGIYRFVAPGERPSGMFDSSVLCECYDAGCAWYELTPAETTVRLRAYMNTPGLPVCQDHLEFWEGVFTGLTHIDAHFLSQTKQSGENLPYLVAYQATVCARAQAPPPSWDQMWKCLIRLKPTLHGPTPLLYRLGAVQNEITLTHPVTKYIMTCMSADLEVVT

As a reminder, the solubility is how much of the substance goes into solution per volume. What is called Cmax is the maximum level reached in the sampled fluid or tissue. A word on the IC50: it is the point on the concentration scale where inhibition reaches its midpoint. For `C=C[C@@H]1C[C@]1(NC(=O)[C@@H]1C[C@@]2(CN1C(=O)[C@@H](NC(=O)[C@@H](NC(=O)[C@@H]1CCCCN1C(C)C)C1CCCCC1)C(C)(C)C)C(C)(C)C21CCC1)C(=O)NS(=O)(=O)C1(C)CC1` [Compound 63, (5R,8S)-7-[(2S)-2-{[(2S)-2-cyclohexyl-2-({[(2S)-1-isopropylpiperidin-2-yl]carbonyl}amino)acetyl]amino}-3,3-dimethylbutanoyl]-10,10-dimethyl-N-[(1R,2S)-1-{[(1-methylcyclopropyl)sulfonyl]carbamoyl}-2-vinylcyclopropyl]-7-azadispiro[3.0.4.1]decane-8-carboxamide], the solubility at 24 h was at least 100 µM in data set [1] (setting [3]) and at least 30 µM in data set [1] (setting [4]). Also, the Cmax in the data set “in vivo” (Sprague Dawley) amounted to 320 nM. In data set [2], this molecule yielded an IC50 of 1.8 nM.

Turning to `C=C[C@@H]1C[C@]1(NC(=O)[C@@H]1C[C@@]2(CN1C(=O)[C@@H](NC(=O)[C@@H](NC(=O)[C@@H]1CCCCN1C(C)C)C1CCCCC1)C(C)(C)C)C(C)(C)C21CCC1)C(=O)NS(=O)(=O)C1(CCC)CC1` [Compound 68, (5R,8S)-7-[(2S)-2-{[(2S)-2-cyclohexyl-2-({[(2S)-1-isopropylpiperidin-2-yl]carbonyl}amino)acetyl]amino}-3,3-dimethylbutanoyl]-10,10-dimethyl-N-[(1R,2S)-1-{[(1-propylcyclopropyl)sulfonyl]carbamoyl}-2-vinylcyclopropyl]-7-azadispiro[3.0.4.1]decane-8-carboxamide], the solubility at 24 h is at least 100 µM in data set [1] (setting [3]) and at least 30 µM in data set [1] (setting [4]). The same molecule displayed a Cmax in the data set “in vivo” (Sprague Dawley) of 348 nM. Besides, the IC50 in data set [2] amounted to 4 nM.

Regarding `CC[C@@H]1C[C@]1(NC(=O)[C@@H]1C[C@@]2(CN1C(=O)[C@@H](NC(=O)[C@@H](NC(=O)[C@@H]1CCCCN1C(C)C)C1CCCCC1)C(C)(C)C)C(C)(C)C21CCC1)C(=O)NS(=O)(=O)C1(C)CC1` [Compound 70, (5R,8S)-7-[(2S)-2-{[(2S)-2-cyclohexyl-2-({[(2S)-1-isopropylpiperidin-2-yl]carbonyl}amino)acetyl]amino}-3,3-dimethylbutanoyl]-N-[(1R,2R)-2-ethyl-1-{[(1-methylcyclopropyl)sulfonyl]carbamoyl}cyclopropyl]-10,10-dimethyl-7-azadispiro[3.0.4.1]decane-8-carboxamide], the values for the solubility at 24 h in data set [1] (setting [3]) and in data set [1] (setting [4]) were at least 100 µM and at least 30 µM, respectively. Moreover, the Cmax in “in vivo” (Sprague Dawley) amounted to 130 nM. In data set [2], the midpoint of inhibition, the IC50, lay at 2 nM.

`C=C[C@@H]1C[C@]1(NC(=O)[C@@H]1C[C@@]2(CN1C(=O)[C@@H](NC(=O)[C@@H](NC(=O)[C@H]1CCCCN1C(C)C)C1CCCCC1)C(C)(C)C)C(C)(C)C21CCC1)C(=O)NS(=O)(=O)C1(C)CC1` [Compound 74, (5R,8S)-7-[(2S)-2-{[(2S)-2-cyclohexyl-2-({[(2R)-1-isopropylpiperidin-2-yl]carbonyl}amino)acetyl]amino}-3,3-dimethylbutanoyl]-10,10-dimethyl-N-[(1R,2S)-1-{[(1-methylcyclopropyl)sulfonyl]carbamoyl}-2-vinylcyclopropyl]-7-azadispiro[3.0.4.1]decane-8-carboxamide]: the solubility at 24 h in data set [1] (setting [3]) is at least 100 µM; in data set [1] (setting [4]) it was at least 30 µM. The molecule also gave an IC50 in data set [2] of 0.8 nM.

`CCCC1(S(=O)(=O)NC(=O)[C@@]2(NC(=O)[C@@H]3C[C@@]4(CN3C(=O)[C@@H](NC(=O)[C@@H](NC(=O)[C@@H]3CCCN3CC)C3CCCCC3)C(C)(C)C)C(C)(C)C43CCC3)C[C@H]2CC)CC1` [Compound 75, (5R,8S)-7-[(2S)-2-{[(2S)-2-cyclohexyl-2-({[(2S)-1-ethylpyrrolidin-2-yl]carbonyl}amino)acetyl]amino}-3,3-dimethylbutanoyl]-N-[(1R,2R)-2-ethyl-1-{[(1-propylcyclopropyl)sulfonyl]carbamoyl}cyclopropyl]-10,10-dimethyl-7-azadispiro[3.0.4.1]decane-8-carboxamide]: the solubility at 24 h in data set [1] (setting [3]) is at least 100 µM; in data set [1] (setting [4]), at least 30 µM. The molecule also gave a Cmax in the data set “in vivo” (Sprague Dawley) of 289 nM. Besides, in data set [2], the IC50 was determined as 7 nM.

On to `CCCC1(S(=O)(=O)NC(=O)[C@@]2(NC(=O)[C@@H]3C[C@@]4(CN3C(=O)[C@@H](NC(=O)[C@@H](NC(=O)[C@@H]3CCCCN3CC)C3CCCCC3)C(C)(C)C)C(C)(C)C43CCC3)C[C@H]2CC)CC1` [Compound 76, (5R,8S)-7-[(2S)-2-{[(2S)-2-cyclohexyl-2-({[(2S)-1-ethylpiperidin-2-yl]carbonyl}amino)acetyl]amino}-3,3-dimethylbutanoyl]-N-[(1R,2R)-2-ethyl-1-{[(1-propylcyclopropyl)sulfonyl]carbamoyl}cyclopropyl]-10,10-dimethyl-7-azadispiro[3.0.4.1]decane-8-carboxamide], for which the solubility at 24 h was at least 100 µM in data set [1] (setting [3]) and at least 30 µM in data set [1] (setting [4]). The same molecule registered an IC50 in data set [2] of 6 nM.

In the case of `CCCC1(S(=O)(=O)NC(=O)[C@@]2(NC(=O)[C@@H]3C[C@@]4(CN3C(=O)[C@@H](NC(=O)[C@@H](NC(=O)[C@@H]3CCCCN3C(C)C)C3CCCCC3)C(C)(C)C)C(C)(C)C43CCC3)C[C@H]2CC)CC1` [Compound 77, (5R,8S)-7-[(2S)-2-{[(2S)-2-cyclohexyl-2-({[(2S)-1-isopropylpiperidin-2-yl]carbonyl}amino)acetyl]amino}-3,3-dimethylbutanoyl]-N-[(1R,2R)-2-ethyl-1-{[(1-propylcyclopropyl)sulfonyl]carbamoyl}cyclopropyl]-10,10-dimethyl-7-azadispiro[3.0.4.1]decane-8-carboxamide], the solubility at 24 h in data set [1] (setting [3]) is at least 100 µM; in data set [1] (setting [4]), at least 30 µM. Besides, it took 2 nM to reach half-maximal inhibition in data set [2] (IC50).

Broadly, the bioavailability is dose-corrected exposure relative to a reference, in per cent. Lower therefore signals poor availability. As to `CC[C@@H]1C[C@]1(NC(=O)[C@@H]1C[C@@]2(CN1C(=O)[C@@H](NC(=O)[C@@H](NC(=O)[C@@H]1CCCN1CC)C1CCCCC1)C(C)(C)C)C(C)(C)C21CCC1)C(=O)NS(=O)(=O)C1(C)CC1` [Compound 81, (5R,8S)-7-[(2S)-2-{[(2S)-2-cyclohexyl-2-({[(2S)-1-ethylpyrrolidin-2-yl]carbonyl}amino)acetyl]amino}-3,3-dimethylbutanoyl]-N-[(1R,2R)-2-ethyl-1-{[(1-methylcyclopropyl)sulfonyl]carbamoyl}cyclopropyl]-10,10-dimethyl-7-azadispiro[3.0.4.1]decane-8-carboxamide], the solubility at 24 h in data set [1] (setting [3]) is at least 100 µM; in data set [1] (setting [4]) it was at least 30 µM. The bioavailability in the data set “in vivo” (Sprague Dawley) amounted to 22%. Moreover, the Cmax in the data set “in vivo” (Sprague Dawley) was 692 nM. Moreover, in data set [2], inhibition was half-maximal at 0.6 nM (IC50).

`CC[C@@H]1C[C@]1(NC(=O)[C@@H]1C[C@@]2(CN1C(=O)[C@@H](NC(=O)[C@@H](NC(=O)[C@@H]1CCCN1C(C)C)C1CCCCC1)C(C)(C)C)C(C)(C)C21CCC1)C(=O)NS(=O)(=O)C1(C)CC1` [Compound 82, (5R,8S)-7-[(2S)-2-{[(2S)-2-cyclohexyl-2-({[(2S)-1-isopropylpyrrolidin-2-yl]carbonyl}amino)acetyl]amino}-3,3-dimethylbutanoyl]-N-[(1R,2R)-2-ethyl-1-{[(1-methylcyclopropyl)sulfonyl]carbamoyl}cyclopropyl]-10,10-dimethyl-7-azadispiro[3.0.4.1]decane-8-carboxamide]: the solubility at 24 h in data set [1] (setting [3]) was at least 100 µM; in data set [1] (setting [4]) it was at least 30 µM. Half-maximal inhibition in data set [2] (IC50) was put at 2.4 nM.

In “in vivo”, `C=C[C@@H]1C[C@]1(NC(=O)[C@@H]1C[C@@]2(CN1C(=O)[C@@H](NC(=O)OC(C)(C)C)C(C)C)C(C)(C)C21CCC1)C(=O)NS(=O)(=O)C1CC1` [compound 1, tert-butyl [(1S)-1-{[(5R,8S)-8-({(1R,2S)-1-[(cyclopropylsulfonyl)carba-moyl]-2-vinylcyclopropyl}carbamoyl)-10,10-dimethyl-7-azadispiro[3.0.4.1]dec-7-yl]carbonyl}-2-methylpropyl]carbamate, reference compound] yielded a bioavailability of 2%.
